Broadly, the IC50 is the concentration needed to halve the response being measured. Broadly, the CC50 is the concentration that lowers cell viability or growth by half. The EC50 is the concentration at which the effect is half-maximal.

The first series concerns the target Human immunodeficiency virus type 1 reverse transcriptase (Human immunodeficiency virus 1, UniProt Q72547, L100I). The series can be described thus: Inhibition of HIV-1 reverse transcriptase L100I mutant assessed as reduction in dTTP incorporation using poly(rA)/oligo(dT)16 as template/primer after 40 mins by PicoGreen dye based spectrofluorometric analysis.
Conditions: not given
Consider `Cc1cccc(CS(=O)(=O)n2c(=O)[nH]c3ccc(Cl)cc32)c1`, for which the IC50 worked out at 3 µM.
Still for that read-out and setting: then `Cc1cccc(CCS(=O)(=O)n2c(=O)[nH]c3ccc(Cl)cc32)c1`, with 65 µM.
Regarding `O=c1[nH]c2ccc(Cl)cc2n1S(=O)(=O)Cc1cccc(Cl)c1`, the IC50 was determined as 29 µM.
On to `Cc1ccc(CS(=O)(=O)n2c(=O)[nH]c3ccc(Cl)cc32)cc1`, for which the IC50 came to 55 µM.
Take `O=c1[nH]c2ccc(Cl)cc2n1S(=O)(=O)CCc1ccccc1`: the IC50 was > 356 µM.
The same measure, in the same setting: next, `Cc1ccccc1CS(=O)(=O)n1c(=O)[nH]c2ccc(Cl)cc21`: ≥ 64 µM.

System in another series: not listed separately
The series can be described thus: Selectivity index, ratio of CC50 for human MT4 cells to EC50 for HIV1 3B infected in human MT4 cells. Particulars: HIV1 3B infected MT4 cells, read-out: Ratio CC50/EC50. In kind it is toxicity, cell-based.
In the case of `Cc1cccc(CS(=O)(=O)n2c(=O)[nH]c3ccc(Cl)cc32)c1`, the selectivity ratio is 1380.
`Cc1cccc(CCS(=O)(=O)n2c(=O)[nH]c3ccc(Cl)cc32)c1`: the selectivity ratio was < 1.
`O=c1[nH]c2ccc(Cl)cc2n1S(=O)(=O)Cc1cccc(Cl)c1`: the selectivity ratio is 134.
With `Cc1ccc(CS(=O)(=O)n2c(=O)[nH]c3ccc(Cl)cc32)cc1`, the selectivity ratio was 48.
As for `O=c1[nH]c2ccc(Cl)cc2n1S(=O)(=O)CCc1ccccc1`, the selectivity ratio was < 1.
Regarding `Cc1ccccc1CS(=O)(=O)n1c(=O)[nH]c2ccc(Cl)cc21`, the selectivity ratio turned out to be 24.

The target of another series is Human immunodeficiency virus type 1 reverse transcriptase (Human immunodeficiency virus 1, UniProt Q72547, E138K). Briefly: Inhibition of HIV-1 reverse transcriptase E138K mutant assessed as reduction in dTTP incorporation using poly(rA)/oligo(dT)16 as template/primer after 40 mins by PicoGreen dye based spectrofluorometric analysis.
Conditions: not given
With `Cc1cccc(CS(=O)(=O)n2c(=O)[nH]c3ccc(Cl)cc32)c1`, the IC50 stood at 7.6 µM.
On to `Cc1cccc(CCS(=O)(=O)n2c(=O)[nH]c3ccc(Cl)cc32)c1`, for which the IC50 is 88 µM.
On the same count and under the same terms, then `O=c1[nH]c2ccc(Cl)cc2n1S(=O)(=O)Cc1cccc(Cl)c1`, with 64 µM; and `Cc1ccc(CS(=O)(=O)n2c(=O)[nH]c3ccc(Cl)cc32)cc1`, with 63 µM; and `O=c1[nH]c2ccc(Cl)cc2n1S(=O)(=O)CCc1ccccc1`, with > 356 µM.
On to `Cc1ccccc1CS(=O)(=O)n1c(=O)[nH]c2ccc(Cl)cc21`, for which the half-inhibitory concentration (IC50) is > 356 µM.

In a further series the target is Human immunodeficiency virus type 1 reverse transcriptase (Human immunodeficiency virus 1, UniProt Q72547, Y188L). Briefly: Inhibition of HIV-1 reverse transcriptase Y188L mutant assessed as reduction in dTTP incorporation using poly(rA)/oligo(dT)16 as template/primer after 40 mins by PicoGreen dye based spectrofluorometric analysis.
Conditions: not given
Regarding `Cc1cccc(CS(=O)(=O)n2c(=O)[nH]c3ccc(Cl)cc32)c1`, the IC50 is > 356 µM.
Turning to `Cc1cccc(CCS(=O)(=O)n2c(=O)[nH]c3ccc(Cl)cc32)c1`, the IC50 was 219 µM.
As for `O=c1[nH]c2ccc(Cl)cc2n1S(=O)(=O)Cc1cccc(Cl)c1`, the IC50 is > 335 µM.
For `Cc1ccc(CS(=O)(=O)n2c(=O)[nH]c3ccc(Cl)cc32)cc1`, the IC50 was determined as 280 µM.
On to `O=c1[nH]c2ccc(Cl)cc2n1S(=O)(=O)CCc1ccccc1`, for which the IC50 is > 356 µM.
With `Cc1ccccc1CS(=O)(=O)n1c(=O)[nH]c2ccc(Cl)cc21`, the half-inhibitory concentration (IC50) is > 356 µM.

For a further series, the target named is Human immunodeficiency virus type 1 reverse transcriptase (Human immunodeficiency virus 1, UniProt Q72547, G190A). The series can be described thus: Inhibition of HIV-1 reverse transcriptase G190A mutant assessed as reduction in dTTP incorporation using poly(rA)/oligo(dT)16 as template/primer after 40 mins by PicoGreen dye based spectrofluorometric analysis.
Conditions: not given
For the molecule `Cc1cccc(CS(=O)(=O)n2c(=O)[nH]c3ccc(Cl)cc32)c1`, the IC50 worked out at 132 µM.
For the molecule `Cc1cccc(CCS(=O)(=O)n2c(=O)[nH]c3ccc(Cl)cc32)c1`, the IC50 worked out at 90 µM.
Take `O=c1[nH]c2ccc(Cl)cc2n1S(=O)(=O)Cc1cccc(Cl)c1`: the IC50 was found to be 260 µM.
The same measure, in the same setting: next, `Cc1ccc(CS(=O)(=O)n2c(=O)[nH]c3ccc(Cl)cc32)cc1`: ≥ 310 µM; `O=c1[nH]c2ccc(Cl)cc2n1S(=O)(=O)CCc1ccccc1`: > 356 µM; `Cc1ccccc1CS(=O)(=O)n1c(=O)[nH]c2ccc(Cl)cc21`: > 356 µM.

System in a further series: not listed separately
The series can be described thus: Cytotoxicity against human MT4 cells assessed as reduction in cell viability after 5 days by MTT assay. In kind it is cell-based.
Conditions: not given
Turning to `Cc1cccc(CS(=O)(=O)n2c(=O)[nH]c3ccc(Cl)cc32)c1`, the CC50 at 120 h worked out at 110 µM.
In the case of `Cc1cccc(CCS(=O)(=O)n2c(=O)[nH]c3ccc(Cl)cc32)c1`, the CC50 at 120 h is 31 µM.
As to `O=c1[nH]c2ccc(Cl)cc2n1S(=O)(=O)Cc1cccc(Cl)c1`, the 50% cytotoxic concentration (CC50) at 120 h was found to be 152 µM.
`Cc1ccc(CS(=O)(=O)n2c(=O)[nH]c3ccc(Cl)cc32)cc1`: the CC50 at 120 h stood at 93 µM.
The same measure, in the same setting: next, `O=c1[nH]c2ccc(Cl)cc2n1S(=O)(=O)CCc1ccccc1`: 30 µM; `Cc1ccccc1CS(=O)(=O)n1c(=O)[nH]c2ccc(Cl)cc21`: 238 µM.
Consider `O=C1Nc2ccc(Cl)cc2[C@@](C#CC2CC2)(C(F)(F)F)O1` [EFAVIRENZ], for which the 50% cytotoxic concentration (CC50) at 120 h is > 6.33 µM.
As to `Cc1ccnc2c1NC(=O)c1cccnc1N2C1CC1` [NEVIRAPINE], the CC50 at 120 h was > 15 µM.

A further series has as its target Human immunodeficiency virus type 1 reverse transcriptase (Human immunodeficiency virus 1, UniProt Q72547, Y181C). Briefly: Inhibition of HIV-1 reverse transcriptase Y181C mutant assessed as reduction in dTTP incorporation using poly(rA)/oligo(dT)16 as template/primer after 40 mins by PicoGreen dye based spectrofluorometric analysis.
Conditions: not given
For the molecule `Cc1cccc(CS(=O)(=O)n2c(=O)[nH]c3ccc(Cl)cc32)c1`, the IC50 worked out at 98 µM.
As for `Cc1cccc(CCS(=O)(=O)n2c(=O)[nH]c3ccc(Cl)cc32)c1`, the IC50 is 80 µM.
Turning to `O=c1[nH]c2ccc(Cl)cc2n1S(=O)(=O)Cc1cccc(Cl)c1`, the IC50 was > 335 µM.
On to `Cc1ccc(CS(=O)(=O)n2c(=O)[nH]c3ccc(Cl)cc32)cc1`, for which the IC50 came out at 183 µM.
Same read-out and setting: next, `O=c1[nH]c2ccc(Cl)cc2n1S(=O)(=O)CCc1ccccc1`: > 356 µM; `Cc1ccccc1CS(=O)(=O)n1c(=O)[nH]c2ccc(Cl)cc21`: > 356 µM.

A further series has as its target Human immunodeficiency virus type 1 reverse transcriptase (Human immunodeficiency virus 1, UniProt Q72547, V106A). Briefly: Inhibition of HIV-1 reverse transcriptase V106A mutant assessed as reduction in dTTP incorporation using poly(rA)/oligo(dT)16 as template/primer after 40 mins by PicoGreen dye based spectrofluorometric analysis.
Conditions: not given
In the case of `Cc1cccc(CS(=O)(=O)n2c(=O)[nH]c3ccc(Cl)cc32)c1`, the IC50 worked out at 0.9 µM.
In the case of `Cc1cccc(CCS(=O)(=O)n2c(=O)[nH]c3ccc(Cl)cc32)c1`, the IC50 came to 74 µM.
In the case of `O=c1[nH]c2ccc(Cl)cc2n1S(=O)(=O)Cc1cccc(Cl)c1`, the IC50 is 6.6 µM.
The same measure, in the same setting: next, `Cc1ccc(CS(=O)(=O)n2c(=O)[nH]c3ccc(Cl)cc32)cc1`: 6.6 µM; `O=c1[nH]c2ccc(Cl)cc2n1S(=O)(=O)CCc1ccccc1`: > 356 µM; `Cc1ccccc1CS(=O)(=O)n1c(=O)[nH]c2ccc(Cl)cc21`: > 356 µM.

For the next series, the system named is Human immunodeficiency virus 1. Briefly: Antiviral activity against HIV1 3B infected in human MT4 cells assessed as inhibition of virus-induced cytopathic effect after 5 days by MTT assay. In kind it is functional, cell-based. Particulars: Human immunodeficiency virus 1, 3B, MT4, 120 h. For orientation: Protection from cytopathic effect is a common read-out in antiviral testing.
For `Cc1cccc(CS(=O)(=O)n2c(=O)[nH]c3ccc(Cl)cc32)c1`, the EC50 was 0.08 µM.
Regarding `Cc1cccc(CCS(=O)(=O)n2c(=O)[nH]c3ccc(Cl)cc32)c1`, the concentration for a half-maximal effect (EC50) is > 31 µM.
For the molecule `O=c1[nH]c2ccc(Cl)cc2n1S(=O)(=O)Cc1cccc(Cl)c1`, the EC50 came out at 1.14 µM.
The same measure, in the same setting: next, `Cc1ccc(CS(=O)(=O)n2c(=O)[nH]c3ccc(Cl)cc32)cc1`: 1.93 µM.
On the same count and under the same terms, then `O=c1[nH]c2ccc(Cl)cc2n1S(=O)(=O)CCc1ccccc1`, with > 30 µM; and `Cc1ccccc1CS(=O)(=O)n1c(=O)[nH]c2ccc(Cl)cc21`, with 10 µM; and `Cc1ccnc2c1NC(=O)c1cccnc1N2C1CC1` [NEVIRAPINE], with 0.18 µM.

The target in another series is Human immunodeficiency virus type 1 reverse transcriptase (Human immunodeficiency virus 1, UniProt Q72547). The series can be described thus: Inhibition of recombinant wild-type HIV-1 reverse transcriptase p66/p51 RNA-dependent DNA polymerase activity expressed in Escherichia coli JM109 assessed as reduction in dTTP incorporation using poly(rA)/oligo(dT)16 as template/primer after 40 mins by PicoGreen dye based spectrofluorometric analysis.
Conditions: not given
As to `Cc1cccc(CS(=O)(=O)n2c(=O)[nH]c3ccc(Cl)cc32)c1`, the IC50 came to 0.79 µM.
As for `Cc1cccc(CCS(=O)(=O)n2c(=O)[nH]c3ccc(Cl)cc32)c1`, the half-maximal inhibitory concentration (IC50) turned out to be 39 µM.
Turning to `O=c1[nH]c2ccc(Cl)cc2n1S(=O)(=O)Cc1cccc(Cl)c1`, the IC50 is 6 µM.
Consider `Cc1ccc(CS(=O)(=O)n2c(=O)[nH]c3ccc(Cl)cc32)cc1`, for which the IC50 is 2.25 µM.
Turning to `O=c1[nH]c2ccc(Cl)cc2n1S(=O)(=O)CCc1ccccc1`, the IC50 was 76 µM.
Turning to `Cc1ccccc1CS(=O)(=O)n1c(=O)[nH]c2ccc(Cl)cc21`, the IC50 was 21 µM.

The next series has as its target Human immunodeficiency virus type 1 reverse transcriptase (Human immunodeficiency virus 1, UniProt Q72547, K103N). Briefly: Inhibition of HIV-1 reverse transcriptase K103N mutant assessed as reduction in dTTP incorporation using poly(rA)/oligo(dT)16 as template/primer after 40 mins by PicoGreen dye based spectrofluorometric analysis.
Conditions: not given
As for `Cc1cccc(CS(=O)(=O)n2c(=O)[nH]c3ccc(Cl)cc32)c1`, the IC50 came to 105 µM.
As to `Cc1cccc(CCS(=O)(=O)n2c(=O)[nH]c3ccc(Cl)cc32)c1`, the IC50 amounted to 119 µM.
In the case of `O=c1[nH]c2ccc(Cl)cc2n1S(=O)(=O)Cc1cccc(Cl)c1`, the IC50 is > 335 µM.
On to `Cc1ccc(CS(=O)(=O)n2c(=O)[nH]c3ccc(Cl)cc32)cc1`, for which the IC50 is 280 µM.
On to `O=c1[nH]c2ccc(Cl)cc2n1S(=O)(=O)CCc1ccccc1`, for which the IC50 was > 356 µM.
Take `Cc1ccccc1CS(=O)(=O)n1c(=O)[nH]c2ccc(Cl)cc21`: the IC50 is > 356 µM.
